Tests used:
[1] = target: T1, growth hormone secretagogue receptor (GHSR), rat pituitary membranes (Rattus norvegicus, UniProt O08725); assay: [35S]-Compound A radioreceptor binding, rat pituitary membranes
T1 construct: from the Wistar male rats (150-200 g); from tissue; host or cells: pituitary glands of male Wistar rats (150-200 g), crude membranes
Procedure: [^35 S]-Compound A was prepared from an appropriate precursor, N-[1(R)-[(1,2-dihydrospiro[3H-indole-3,4'-piperidin]-1'-yl)-carbonyl]-2-(phenyl-methyloxy)ethyl]-2-amino-t-butoxycarbonyl-2-methylpropanamide, using methane [^35 S]sulfonyl chloride as described in Dean DC, et al., 1995, In: Allen J, Voges R (eds) Synthesis and Applications of Isotopically Labelled Compounds, John Wiley & Sons, New York, pp. 795-801, Purification by semi-preparative HPLC (Zorbax SB-phenyl column, 68% MeOH/water, 0.1% TFA, 5 ml/min) was followed by N-t-BOC cleavage using 15% trifluroacetic acid in dichloromethane (25° C., 3 hr) to give [methylsulfonyl-^35 S]Compound A in near quantitative yield. HPLC purification (Hamilton PRP-1 4.6×250 mm column, linear gradient of 50-75% methanol-water with 1 mM HCl over 30 min, 1.3 ml/min) provided the ligand in >99% radiochemical purity. The structure was established by HPLC coelution with unlabeled Compound A and by mass spectral analysis. The latter method also indicated a specific activity of ~1000 Ci/mmol.
Frozen anterior pituitary glands from male swine (50-80 Kg) or from the Wistar male rats (150-200 g) were homogenized in a tissue homogenizer in ice-cold buffer (50 mM Tris-HCl buffer, pH 7.4, 5 mM MgCl2, 2.5 mM EDTA, 0.1% bovine serum albumin and 30 μg/ml bacitracin). The homogenates were centrifuged for 5 min at 1,400×g and the resulting supernatants were then centrifuged at 34,000×g for 20 min. The pellets were resuspended in same buffer to a 1,500 μg protein/ml and stored at -80° C. Protein was determined by a Bio-Rad method (Bio-Rad Laboratories, Richmond, Calif.).
The standard binding solution contained: […] of 25 mM Tris-HCl buffer, pH 7.4, 10 mM MgCl2, 2.5 mM EDTA, and 100 pM [^35 S]-Compound A. Pituitary membranes (100 μl, 150 μg protein) were added to initiate the binding reaction. […] The filters were washed three times with 3-ml of ice-cold buffer (50 mM Tris-HCl, pH 7.4, 10 mM MgCl2, 2.5 mM EDTA and 0.015% Triton X-100) and the radioactivity on the filters were counted in Aquasol 2. […]

rat GHSR type Ia = assay: Aequorin bioluminescence in transfected 293-AEQ17 (HEK-293) cells, rat GHSR; type: cell-based; conditions: three replicate samples; mobilization of intracellular calcium
Procedure: Functional activity of the ORF construct was assessed by transfecting (using lipofectamine; GIBCO/BRL) 5 μg of plasmid DNA into the aequorin expressing reporter cell line (293-AEQ17) cultured in 60 mm dishes. Following approximately 40 hours of expression the aequorin in the cells was charged for 2 hours with coelenterazine, the cells were harvested, washed and pelleted by low speed centrifugation into luminometer tubes. Functional activity was determined by measuring Compound A dependent mobilization of intracellular calcium and concommitant calcium induced aequorin bioluminescence.

T1 sequence (O08725 whole entry): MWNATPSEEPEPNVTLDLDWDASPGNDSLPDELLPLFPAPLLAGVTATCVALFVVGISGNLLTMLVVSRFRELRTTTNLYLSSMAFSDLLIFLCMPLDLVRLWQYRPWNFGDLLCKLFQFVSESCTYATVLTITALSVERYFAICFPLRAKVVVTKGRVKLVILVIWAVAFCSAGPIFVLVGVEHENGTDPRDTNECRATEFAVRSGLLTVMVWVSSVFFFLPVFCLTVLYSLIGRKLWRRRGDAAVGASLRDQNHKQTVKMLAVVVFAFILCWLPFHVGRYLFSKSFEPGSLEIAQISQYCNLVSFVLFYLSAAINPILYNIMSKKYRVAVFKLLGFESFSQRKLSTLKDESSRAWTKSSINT

With CC(C)(N)C(=O)N[C@H](COCc1ccccc1)C(=O)N1CCC2(CC1)CN(S(C)(=O)=O)c1ccccc12 [Compound A, (N-[1(R)-[1,2-dihydro-1-methanesulfonlylspiro[3H-indole-3,4'-piperidin]-1'-yl)carbonyl]-2-(phenylmethyloxy)-ethyl]-2-amino-2-methyl-propanamide] the “specific binding of total binding” value ([1]; rat membranes, nonspecific in 500 nM unlabeled Compound A) was 45-60%, the Bmax ([1]; rat pituitary membranes, n=3) was 2.3±1.1 fmol/mg protein and the Kd ([1]; rat pituitary membranes, n=3) was 0.18 ± 0.009 nM. For the same compound, the “Compound A induced luminescent response (in words)” value (rat GHSR type Ia) was “Compound A induced luminescent responses”.
